Data: patent US20220305051A1 (priority 2019, published 2022)

Key:
[1] = mouse, in vivo
[2] = parameters: species or system mice; conditions: mouse, in vivo
oral NR activity [3] = system: oral NR activity; parameters: species or system mice; conditions: mouse, in vivo
[4] = system: C57bl/6 mice exposed to Cl2, Br2 or COCl2; conditions: mouse, in vivo
[5] = system: tongue and lung microbiome; parameters: species or system mice; conditions: mouse, in vivo
oral NR activity [6] = system: oral NR activity; parameters: species or system mice; conditions: mouse, in vivo; remark: listed apart in the source
P. Aeruginosa = system: P. Aeruginosa; parameters: species or system mice; conditions: mouse, in vivo
[7] = system: C57bl/6 mice exposed to Br2; conditions: mouse, in vivo
[8] = system: C57bl/6 mice exposed to Br2; conditions: mouse, in vivo; remark: listed apart in the source

## O=[N+]([O-])O [nitrate]
[1]
  Plasma nitrite and cGMP: will temporally increase plasma nitrite and cGMP
  Plasma nitrite levels: increase

## [H]/N=C(\N/C(=N/[H])NCCCCCCNC(=N)NC(=N)Nc1ccc(Cl)cc1)Nc1ccc(Cl)cc1 [chlorhexidine]
[2]
  Decrease of plasma nitrite: 50%
Oral NR activity [3]
  Inhibition of NR activity: ~70%
[4]
  Increase in severity of Br2 and COCl2 lung injury: 1.5-2.5 fold
  Increase in severity of Cl2 lung injury: close to significant effects
  Lung injury, chlorhexidine alone: no effect on lung injury
[5]
  Decrease in abundance of 7 bacteria on the tongue: > 50%
  Decrease of the one altered bacterial species in the lung microbiome: ~30%

## bromine [Br2]
Oral NR activity [6]
  Bacterial number (CFU): not different
  NR activity normalized per bacterial number: significantly inhibited

## O=NO [nitrite, sodium nitrite]
P. Aeruginosa
  Protection against ALI and P. aeruginosa infection: protects against ALI and P. aeruginosa infection
  Susceptibility to P. aeruginosa infection (bacterial burden in lung homogenates): decreases susceptibility to P. aeruginosa infection
[7]
  Decrease of BAL neutrophil: 50%
[8]
  Survival over 10 days (Kaplan Meier): improved survival early

B1: hemopexin: a heme-scavenger; scavenges free heme (protein, UniProt P02790 24-462, looked up)
Hemopexin: TPLPPTSAHGNVAEGETKPDPDVTERCSDGWSFDATTLDDNGTMLFFKGEFVWKSHKWDRELISERWKNFPSPVDAAFRQGHNSVFLIKGDKVWVYPPEKKEKGYPKLLQDEFPGIPSPLDAAVECHRGECQAEGVLFFQGDREWFWDLATGTMKERSWPAVGNCSSALRWLGRYYCFQGNQFLRFDPVRGEVPPRYPRDVRDYFMPCPGRGHGHRNGTGHGNSTHHGPEYMRCSPHLVLSALTSDNHGATYAFSGTHYWRLDTSRDGWHSWPIAHQWPQGPSAVDAAFSWEEKLYLVQGTQVYVFLTKGGYTLVSGYPKRLEKEVGTPHGIILDSVDAAFICPGSSRLHIMAGRRLWWLDLKSGAQATWTELPWPHEKVDGALCMEKSLGPNSCSANGPGLYLIHGPNLYCYSDVEKLNAAKALPQPQNVTSLLGCTH
P. Aeruginosa
  Protection against ALI and P. aeruginosa infection: protects against ALI and P. aeruginosa infection
[8]
  Survival over 10 days (Kaplan Meier): improved survival
